This data set can be described thus: Solubility. Type of data set: physicochemical. The source says:
Soluble in water and physiological saline. Insoluble in acetone.

From patent US4745101A, “Novel peptide having dentinal fluid transport-stimulating activity” (Teikoku Hormone Mfg. Co., Ltd., priority 1985, dated 1988) come the findings set out here.

Where no end group is shown, it is not given here.

As to “GVIAWELQHNQPGRKDSTAG [Peptide of the invention]”, the Solubility result runs as follows: (in acetone) “Insoluble”; (in physiological saline) “Soluble”; (in water) “Soluble”.
